Data on four compounds can be found in ChEMBL document CHEMBL1136327, “Synthesis of a highly active new anti-HIV agent 2',3'-didehydro-3'-deoxy-4'-ethynylthymidine” (Bioorg Med Chem Lett, 2003).

One assay has as its system MT2. The experiment in a line: Cytotoxic concentration required to reduce the viability of mock-infected MT-2 cells by 50%. The assay is classed as functional. As to conditions: Homo sapiens.
The subject of assay [1] is Human immunodeficiency virus 1. The assay can be described thus: Inhibitory activity against HIV-1 IIIB to achieve 50% protection of MT-2 cells. The following applies: Human immunodeficiency virus 1, MT2. The assay is classed as functional, organism-based.

By CC50 is commonly meant the concentration giving 50% cytotoxicity. One may read the IC50 as the concentration needed to halve the response being measured. In the case of `C=C[C@@]1(CO)C=C[C@H](n2cc(C)c(=O)[nH]c2=O)O1`, in the assay on MT2, the CC50 is over 100 µM. For the same compound, in assay [1], the IC50 was over 100 µM.

In the assay with MT2, `Cc1cn([C@H]2C=C[C@@](C)(CO)O2)c(=O)[nH]c1=O` yielded a CC50 of over 100 µM. The same compound had an IC50 in assay [1] of over 100 µM.

For the compound `C#C[C@@]1(CO)C=C[C@H](n2cc(C)c(=O)[nH]c2=O)O1` [CENSAVUDINE], the CC50 with MT2 was over 100 µM. The same compound returned an IC50 in assay [1] of 0.2 µM.

On to `Cc1cn([C@H]2C=C[C@@H](CO)O2)c(=O)[nH]c1=O` [STAVUDINE], for which the cytotoxic concentration (CC50) in the assay on MT2 turned out to be 100 µM. In assay [1], 2.8 µM corresponded to half-maximal inhibition (IC50).
